Among the data in ChEMBL document CHEMBL1201862, “PubChem BioAssay data set” (2004) are AC50, IC50 and EC50 values, retold here.

For orientation: AC50 means the concentration at which the activity in the assay is half-maximal. Usually EC50 stands for the concentration at which the effect is half-maximal.

Activity calls are given as the source filed them.

Assay [1] in a line: Luminescence Cell-Based Dose Retest to Confirm Inhibitors of Cancer Stem Cells. [Related pubchem assays (depositor defined):AID2717, AID2721]. It is filed as functional. The settings on record: Homo sapiens.
Assay [2] in a line: Fluorescence-based cell-based high throughput dose response assay for inhibitors of the interaction of nucleotide-binding oligomerization domain containing 2 (NOD2) and the receptor-interacting serine-threonine kinase 2 (RIPK2). It is filed as functional. The settings on record: Homo sapiens.
In assay [3] the target is T1, Microphthalmia-associated transcription factor (Homo sapiens, UniProt O75030).
T1 sequence (O75030 whole entry): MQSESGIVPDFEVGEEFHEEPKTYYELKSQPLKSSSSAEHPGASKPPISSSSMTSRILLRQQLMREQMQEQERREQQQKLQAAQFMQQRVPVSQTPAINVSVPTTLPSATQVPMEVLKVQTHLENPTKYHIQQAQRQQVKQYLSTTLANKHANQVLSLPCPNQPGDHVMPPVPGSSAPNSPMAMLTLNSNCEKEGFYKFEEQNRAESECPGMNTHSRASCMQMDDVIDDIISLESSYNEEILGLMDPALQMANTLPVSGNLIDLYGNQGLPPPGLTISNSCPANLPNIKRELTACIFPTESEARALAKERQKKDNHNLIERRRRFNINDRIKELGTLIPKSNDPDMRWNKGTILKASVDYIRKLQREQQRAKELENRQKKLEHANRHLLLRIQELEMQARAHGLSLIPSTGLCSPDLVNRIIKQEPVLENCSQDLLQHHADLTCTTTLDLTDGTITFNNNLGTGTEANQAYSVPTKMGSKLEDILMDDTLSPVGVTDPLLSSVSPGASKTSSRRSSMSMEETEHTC
Description: TRPM1 promoter luciferase signal decrease, dose response, MITF inhibitor project, cell-based, SK-MEL-5, cherry-picked, set 3 (AID 493073).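 Note: SK-MEL-5 melanoma cells with luciferase driven by the MITF target TRPM1 promoter.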 It is filed as functional.

The target in assay [4] is 26S proteasome non-ATPase regulatory subunit 14 (Homo sapiens, UniProt O00487). Description: inhibition of proteasome subunit RPN11 – biochemical, fluorescence polarization, uHTS hits, confirmation (AID 602368). It is filed as functional.
The target of the next assay is Prothrombin (Bos taurus, UniProt P00735). Description: thrombin inhibition, dose response, biochemical, fluorescence polarization, uHTS hits (AID 602369). It is filed as functional. (In fluorescence polarisation assays a small probe gives low polarisation when free and higher when bound to something large.)
Assay [5] deals with 72 kDa type IV collagenase (Homo sapiens, UniProt P08253). Description: Dose Response validation of uHTS RPN11 inhibitor hits using a MMP-2 Fluorescence assay. It is filed as functional.
Assay [6] addresses T2, Luciferin 4-monooxygenase (Photinus pyralis, UniProt P08659). Description: Counter Screen for Luciferase-based Assay Positives. [Related pubchem assays: 620, 618, 411 ]. On the technique in general: Counterscreens check selectivity or assay interference.
For assay [7], the system named is BJ. As to the kind of experiment: cytotoxicity toward Ras-transformed BJeLR fibroblasts, dose response, cell-based, alamar blue fluorescence, cherrypicked samples (AID 2631).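 Note: confirmatory dose-response assay in RAS-dependent BJ fibroblasts engineered with TERT, LT and ST, with cytotoxicity read by fluorescence.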 It is filed as functional. The settings on record: Homo sapiens. In general terms: Resazurin is reduced to fluorescent resorufin, in cell work by metabolically active cells.
The next assay concerns HT-1080. As to the kind of experiment: cytotoxicity in HT1080 fibrosarcoma cells, cell-based, fluorescence readout (AID 620). The conditions noted are these: Homo sapiens. It is filed as functional.
Assay [8] concerns BJ. Description: cytotoxicity toward BJ-TERT fibroblasts, dose response, cell-based, RAS-independent, luminescence (AID 1933). It is filed as functional. The conditions noted are these: Homo sapiens.
In assay [9] the test system is BJ. As to the kind of experiment: cells. The conditions noted are these: Homo sapiens. It is filed as functional, cell-based.
The target in assay [10] is Heat shock protein HSP 90-alpha (Homo sapiens, UniProt P07900). It is filed as functional, organism-based.
The test system of assay [11] is BJ. Description: cytotoxicity toward BJ-TERT-LT-ST fibroblasts, dose response, cell-based, RAS-independent, luminescence (AID 1935).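 Note: BJ fibroblasts immortalized with TERT plus LT and ST oncogenes.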 The settings on record: Homo sapiens. It is filed as functional.
Assay [12] can be described thus: cytotoxicity toward DRD oncogenic fibroblasts, dose response, cell-based, non-viral oncogenic, luminescence (AID 1934). It is filed as functional. The conditions noted are these: Homo sapiens.
The nature of assay [13]: Luminescence Cell-Based Dose Confirmation HTS to Identify Inhibitors of Platelet Dense Granule Release. [Related pubchem assays: 1663 (Primary HTS), 1678 (Summary of Project)]. It is filed as functional.
Assay [14] concerns the target T2, Luciferin 4-monooxygenase. Description: firefly luciferase enzyme inhibitors, dose response, biochemical, luminescence (AID 1891).
The target of assay [15] is T3, Adenosylmethionine-8-amino-7-oxononanoate aminotransferase (Mycobacterium tuberculosis, UniProt P9WQ81).
T3 sequence (P9WQ81 whole entry): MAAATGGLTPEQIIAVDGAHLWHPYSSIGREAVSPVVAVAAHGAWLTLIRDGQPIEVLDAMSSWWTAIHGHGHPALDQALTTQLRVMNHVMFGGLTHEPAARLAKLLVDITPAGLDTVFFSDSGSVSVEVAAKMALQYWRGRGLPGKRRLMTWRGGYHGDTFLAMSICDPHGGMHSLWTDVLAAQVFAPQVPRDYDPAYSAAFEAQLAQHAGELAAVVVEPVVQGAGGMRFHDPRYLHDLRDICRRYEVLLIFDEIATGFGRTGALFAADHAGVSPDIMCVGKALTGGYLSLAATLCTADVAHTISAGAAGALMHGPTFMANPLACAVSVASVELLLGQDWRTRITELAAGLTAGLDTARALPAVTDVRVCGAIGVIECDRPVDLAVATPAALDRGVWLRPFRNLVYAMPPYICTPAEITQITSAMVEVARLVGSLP
Description: Mycobacterium tuberculosis BioA enzyme inhibitor Measured in Biochemical System Using Plate Reader - 2163-02_Inhibitor_Dose_CherryPick_Activity. It is filed as functional, Mycobacterium tuberculosis UT205.

The target of assay [16] is T4, Sentrin-specific protease 8 (Homo sapiens, UniProt Q96LD8).
T4 sequence (Q96LD8 whole entry): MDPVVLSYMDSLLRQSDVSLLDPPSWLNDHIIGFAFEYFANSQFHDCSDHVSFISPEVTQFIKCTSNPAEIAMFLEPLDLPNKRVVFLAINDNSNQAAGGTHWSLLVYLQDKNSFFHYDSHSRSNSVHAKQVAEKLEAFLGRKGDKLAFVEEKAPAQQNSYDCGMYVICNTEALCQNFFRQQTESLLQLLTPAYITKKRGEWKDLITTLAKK
It is filed as functional.

Assay [17] has as its target T4, Sentrin-specific protease 8. It is filed as functional. The source holds these as a separate data set.
The target in assay [18] is T5, Low molecular weight phosphotyrosine protein phosphatase (Homo sapiens, UniProt P24666).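 Note: Dose-response confirmation assay measuring inhibition of LMPTP enzyme activity by fluorescence intensity read-out.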
T5 sequence (P24666 whole entry): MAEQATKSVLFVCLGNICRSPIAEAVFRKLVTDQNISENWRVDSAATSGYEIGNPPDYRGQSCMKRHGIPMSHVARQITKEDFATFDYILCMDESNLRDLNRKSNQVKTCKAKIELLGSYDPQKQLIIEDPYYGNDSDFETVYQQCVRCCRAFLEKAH
It is filed as functional. The settings on record: read-out: IC50_Mean.

In assay [19] the target is T6, Carboxy-terminal domain RNA polymerase II polypeptide A small phosphatase 1 (Homo sapiens, UniProt Q9GZU7).
T6 sequence (Q9GZU7 whole entry): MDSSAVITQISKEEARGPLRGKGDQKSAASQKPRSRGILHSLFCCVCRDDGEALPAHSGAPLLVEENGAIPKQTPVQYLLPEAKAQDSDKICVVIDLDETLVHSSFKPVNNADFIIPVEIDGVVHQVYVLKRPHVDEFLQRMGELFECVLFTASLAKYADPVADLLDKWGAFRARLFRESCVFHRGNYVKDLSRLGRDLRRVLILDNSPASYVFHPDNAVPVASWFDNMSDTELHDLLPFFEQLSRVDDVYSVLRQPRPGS
Description: inhibitors of CTDSP1, concentration-response testing, biochemical assay, absorbance-based, actives from ultra-high-throughput screening (AID 540297). It is filed as functional.

In the next assay the target is Large T antigen (Simian virus 40, UniProt P03070). It is filed as functional, Betapolyomavirus macacae.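 Note: Confirmatory-stage PubChem screen for compounds that inhibit SV40 T antigen.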
Sequence of Large T antigen (P03070 whole entry): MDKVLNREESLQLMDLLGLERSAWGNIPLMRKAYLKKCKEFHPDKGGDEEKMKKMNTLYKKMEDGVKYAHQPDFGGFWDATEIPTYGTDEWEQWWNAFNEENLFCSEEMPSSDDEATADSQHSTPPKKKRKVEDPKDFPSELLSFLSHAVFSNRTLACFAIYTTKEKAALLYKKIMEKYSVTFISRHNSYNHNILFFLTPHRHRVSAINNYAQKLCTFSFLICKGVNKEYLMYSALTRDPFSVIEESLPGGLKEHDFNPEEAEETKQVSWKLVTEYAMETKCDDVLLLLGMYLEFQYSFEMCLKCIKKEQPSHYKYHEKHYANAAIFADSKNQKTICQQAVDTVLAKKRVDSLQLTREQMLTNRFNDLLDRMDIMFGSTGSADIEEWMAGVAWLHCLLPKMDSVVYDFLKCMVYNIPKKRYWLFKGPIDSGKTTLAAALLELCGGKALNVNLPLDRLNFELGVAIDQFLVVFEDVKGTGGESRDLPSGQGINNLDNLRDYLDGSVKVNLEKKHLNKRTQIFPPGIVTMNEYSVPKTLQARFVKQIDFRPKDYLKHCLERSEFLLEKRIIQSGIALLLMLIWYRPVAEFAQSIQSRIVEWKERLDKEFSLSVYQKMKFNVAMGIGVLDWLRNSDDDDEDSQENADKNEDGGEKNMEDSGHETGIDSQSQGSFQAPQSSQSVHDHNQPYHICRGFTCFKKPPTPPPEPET

Sequence of 72 kDa type IV collagenase (P08253 whole entry): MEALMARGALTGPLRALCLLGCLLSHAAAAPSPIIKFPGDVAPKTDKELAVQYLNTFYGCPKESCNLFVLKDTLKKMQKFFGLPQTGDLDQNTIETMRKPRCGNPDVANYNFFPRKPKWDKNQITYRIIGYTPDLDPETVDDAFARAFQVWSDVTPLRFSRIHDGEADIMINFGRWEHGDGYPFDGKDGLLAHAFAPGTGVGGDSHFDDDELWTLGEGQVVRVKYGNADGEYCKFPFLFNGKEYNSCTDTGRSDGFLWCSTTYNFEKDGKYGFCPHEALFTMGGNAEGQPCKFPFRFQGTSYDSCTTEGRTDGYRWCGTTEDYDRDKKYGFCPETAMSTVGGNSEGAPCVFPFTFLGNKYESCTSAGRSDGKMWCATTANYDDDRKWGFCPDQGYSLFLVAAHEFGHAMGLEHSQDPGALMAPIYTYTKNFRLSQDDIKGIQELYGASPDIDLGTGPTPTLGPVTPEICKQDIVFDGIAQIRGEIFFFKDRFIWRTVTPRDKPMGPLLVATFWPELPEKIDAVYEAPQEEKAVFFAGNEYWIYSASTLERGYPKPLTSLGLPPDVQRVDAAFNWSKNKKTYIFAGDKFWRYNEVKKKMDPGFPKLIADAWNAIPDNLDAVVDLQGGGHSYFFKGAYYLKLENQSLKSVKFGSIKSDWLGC
Sequence of 26S proteasome non-ATPase regulatory subunit 14 (O00487 whole entry): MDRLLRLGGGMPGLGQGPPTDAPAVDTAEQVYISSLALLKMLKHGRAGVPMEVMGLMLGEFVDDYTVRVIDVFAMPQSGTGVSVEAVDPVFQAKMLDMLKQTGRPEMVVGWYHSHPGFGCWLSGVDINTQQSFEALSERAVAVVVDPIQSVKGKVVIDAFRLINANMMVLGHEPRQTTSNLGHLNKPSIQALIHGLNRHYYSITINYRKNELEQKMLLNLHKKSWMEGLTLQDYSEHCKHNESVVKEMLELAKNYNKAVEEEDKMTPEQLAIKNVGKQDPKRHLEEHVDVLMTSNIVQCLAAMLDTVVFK
T2 sequence (P08659 whole entry): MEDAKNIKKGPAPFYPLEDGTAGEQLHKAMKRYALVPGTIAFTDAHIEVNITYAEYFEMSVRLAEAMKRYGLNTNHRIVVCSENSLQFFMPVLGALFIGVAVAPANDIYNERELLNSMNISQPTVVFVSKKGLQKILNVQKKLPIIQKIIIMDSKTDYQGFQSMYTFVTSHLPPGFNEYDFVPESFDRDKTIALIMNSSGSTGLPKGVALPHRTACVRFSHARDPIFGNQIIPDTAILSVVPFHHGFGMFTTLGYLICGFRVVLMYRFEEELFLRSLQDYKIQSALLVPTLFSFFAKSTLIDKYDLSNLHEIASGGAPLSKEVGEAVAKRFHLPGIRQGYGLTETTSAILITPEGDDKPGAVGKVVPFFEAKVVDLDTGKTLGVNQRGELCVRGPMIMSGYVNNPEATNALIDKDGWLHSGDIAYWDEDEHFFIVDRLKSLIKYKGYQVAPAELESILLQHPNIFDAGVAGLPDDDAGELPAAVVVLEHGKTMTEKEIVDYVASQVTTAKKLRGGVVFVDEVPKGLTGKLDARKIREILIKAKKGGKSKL

For the compound `O=[N+]([O-])c1cc(S(=O)(=O)N2CCCCCC2)ccc1F`, the AC50 in assay [1] is 3.09 µM (active); in assay [3], 9.53 µM (active). The IC50 in [2] was 1.53 µM (active).
For `Cc1cc(C)cc(NC(=O)Cn2nnc(C(=O)NCc3ccc4c(c3)OCO4)c2N)c1`, the IC50 in [4] was 22.9 µM (active); on Prothrombin it was 72.2 µM (active); in assay [5], > 100 µM (inactive).
Regarding `Cc1cc(C)c(S(=O)(=O)N2C[C@H]3CON(C)[C@H]3C[C@H]2c2ccc(N3CCCCC3)cc2)c(C)c1`, the results for the IC50 (in assay [4]; at Prothrombin; in [5]) were 23.2 µM (active), 29.2 µM (active) and > 100 µM (inactive), respectively.
With `CCOc1ccc2nc(NC(=O)c3ccoc3C)sc2c1`, the EC50 in [6] was 6.49 µM (active); in the assay on BJ [7] it was > 133 µM (inactive); in the assay on HT-1080, > 50 µM (not active); with BJ [8], 2.43 µM (active); in the assay on BJ [9], 1.79 µM (active); in the assay with BJ [11], 6.32 µM (active). For the same compound, the EC50 in [12] is 1.97 µM (active); in assay [13], 231 nM (active); in [14], < 88 nM (active). The AC50 in assay [10] is 2.02 µM (active).
Regarding `CC(=O)OCC(=O)[C@@]1(OC(C)=O)[C@@H](C)C[C@H]2[C@@H]3C[C@H](F)C4=CC(=O)C=C[C@]4(C)[C@@]3(F)[C@@H](O)C[C@@]21C` [DIFLORASONE DIACETATE], the AC50 in assay [15] was 9.06 µM (active).
Consider `CC1=CC2=NC(=O)/C(=C\c3cc(C)n(-c4ccccc4F)c3C)C(=N)N2O1`, for which the AC50 in assay [15] was 0.247 µM (active).
Turning to `COC/C=C/C1=CC2=CC(=O)C(C)(OC(=O)c3cnc4ccccc4n3)C(=O)C2=CN1Cc1ccccc1` (stereo unspecified), the values for the IC50 in assay [16] and in assay [17] were 12.7 µM (active) and 18.9 µM (active), respectively.
With `O=c1c2cc(-c3ccccc3)sc2nc2n1N=C(c1cccs1)CS2`, the IC50 is 13.7 µM (active) in [18] and 6.3 µM (active) in assay [19].
Take `COc1ccc(CNc2nc(-c3ccccc3)nc3ccccc23)cc1OC`: the IC50 in [18] is 9.94 µM (active).
`COc1ccc(-n2c(/C=C/c3ccc(O)c(O)c3)nc3ccccc3c2=O)cc1`: the IC50 in assay [4] was 9.05 µM (active); on Prothrombin, 6.49 µM (active); in assay [5], > 100 µM (inactive); at Large T antigen, 55.9 µM (active).
For the compound `Cc1nc2nc(SCC(=O)N3CCC4(CC3)OCCO4)nn2c(C)c1Cc1ccccc1`, the AC50 in assay [15] is 2.82 µM (active).
